Like-named read-outs stand apart in the source and are kept apart here.
What was measured:
[1] = molecular target: hCB1 (Homo sapiens, UniProt P21554); experiment: In vitro binding assay using hCB1-CHO membranes, [3H]-CP-55,940 displacement (Protocol II); parameters: expressed in transfected cells; host or cells: CHO (hCB1-CHO, generated in-house)
Description: II. Protocol for In Vitro Assay Using hCB1-CHO Membranes
The reaction was set up in a total volume of 200 μl in PEI (Poly(ethyleneimine)) (0.2%) precoated Millipore GFB (Glass Fibre-B) filter plates. 1 mM stocks of test compounds were prepared in DMSO and tested at a final concentration of 300 nM. The non-specific binding was determined by 0.5 μM CP-55, 940. […] The assay mixture (with or without the test compound) was incubated at 37° C. for 1 hour. The reaction was stopped by rapid filtration under vacuum and the radioactivity on the filters was measured by liquid scintillation counting.

[2] = molecular target: hCB2 (Homo sapiens, UniProt P34972); experiment: In vitro binding assay using hCB2-CHO membranes, [3H]-CP-55,940 displacement (Protocol IV); parameters: expressed in transfected cells; host or cells: CHO (hCB2-CHO, generated in-house); settings: for inhibition at 0.3 µM: 1 h, read-out: % Displacement Protocol IV
hCB2, sequence (P34972 whole entry): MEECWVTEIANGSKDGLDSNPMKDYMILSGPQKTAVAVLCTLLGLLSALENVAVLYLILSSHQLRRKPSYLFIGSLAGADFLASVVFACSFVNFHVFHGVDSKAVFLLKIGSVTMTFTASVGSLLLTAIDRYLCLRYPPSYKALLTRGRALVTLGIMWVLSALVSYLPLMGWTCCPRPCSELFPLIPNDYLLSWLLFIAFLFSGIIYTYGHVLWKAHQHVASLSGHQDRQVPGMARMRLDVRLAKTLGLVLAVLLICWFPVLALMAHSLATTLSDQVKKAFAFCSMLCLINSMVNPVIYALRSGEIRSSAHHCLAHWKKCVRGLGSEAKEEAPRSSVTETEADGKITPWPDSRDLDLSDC
Procedure, shortened: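 Displacement of [3H]-CP-55,940 (0.75 nM) from membranes of CHO cells expressing human CB2 (25-50 μg) was measured in Tris-BSA buffer pH 7.4 with 5 mM MgCl2, 1 mM EDTA, 0.1% BSA, 1 h at 30 °C. Test compounds were at 300 nM final; nonspecific binding defined with 0.5 μM CP-55,940. Values are % displacement of specific binding.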

[3] = molecular target: T1, CB1 (Rattus norvegicus, UniProt P20272); experiment: GTPγS binding assay, CB1 functional assay in rat cerebellar membrane (Protocol VIII); assay type: biochemical; parameters: 10 μg rat cerebellum membrane; from tissue; host or cells: rat cerebellum membrane, prepared in-house
T1 sequence (P20272 whole entry): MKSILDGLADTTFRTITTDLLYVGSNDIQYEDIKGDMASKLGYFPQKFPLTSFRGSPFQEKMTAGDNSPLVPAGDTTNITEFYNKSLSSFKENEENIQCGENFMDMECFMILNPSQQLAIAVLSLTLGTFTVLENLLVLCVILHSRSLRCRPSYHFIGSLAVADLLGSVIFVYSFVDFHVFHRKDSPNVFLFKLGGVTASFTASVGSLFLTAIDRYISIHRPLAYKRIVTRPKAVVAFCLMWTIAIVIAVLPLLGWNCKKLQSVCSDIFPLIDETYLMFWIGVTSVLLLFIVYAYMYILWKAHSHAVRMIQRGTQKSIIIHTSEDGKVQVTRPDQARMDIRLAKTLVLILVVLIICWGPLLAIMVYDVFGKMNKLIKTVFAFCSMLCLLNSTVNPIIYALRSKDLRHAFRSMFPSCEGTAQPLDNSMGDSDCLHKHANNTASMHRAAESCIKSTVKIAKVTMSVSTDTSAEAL
Description: VIII. Protocol for GTPγS Binding Assay (CB1 Functional Assay in Rat Cerebellar Membrane)
In this GTPγS binding assay, total, basal and nonspecific binding were determined. See Griffin G., Atkinson P. J., Showalter V. M., Martin B. R. and Abood M. E., “Evaluation of cannabinoid receptor agonists and antagonists using the Guanosine-5′-O-(3-(^35S)thio)-triphosphate binding assay in rat cerebellar membranes,” J Pharmacol Exp Ther 285: 553-560, 1998. Three wells for total binding, three wells for basal binding, and three wells for nonspecific binding at 0.2 nM concentration of radioligand were used. Basal binding was defined by 50 μM GDP (Guanosine diphosphate) and non-specific binding was defined by 10 μM unlabeled GTPγS. 10 μg rat cerebellum membrane, 50 μM of GDP, WIN-55212-2 or test compound (1 μM or 300 nM), 10 μM unlabeled GTPγs, and 0.2 nM of [^35S]GTPγS were added into a 96 well plate and the final volume of the reaction mixture was made with GTPγS buffer (50 mM Tris, 3 mM anhydrous MgCl2, 0.2 mM EGTA and 100 mM NaCl pH 7.4) to 200 μl. The plates were incubated at 30° C. for 1 hour. Then the reaction was stopped by filtration using a Whatman GF/B-96 microfilter plate. Three washings were given using Tris-HCl. The radioactivity bound to the brain membrane was retained on the filter disks to which scintillation fluid was added (Microscint PS). Then plates were read for radioactive counts using a Beta Liquid Scintillation Counter (Packard Instruments, Ill., USA).
The rat cerebellar brain membrane was prepared as follow: • 1. Sacrifice the rat and take out the whole brain and separate cerebellum as fast as possible and keep it on ice. • 2. Take the weight of the cerebellum and homogenize in 30 ml of homogenizing buffer (50 mM Tris-HCL containing 1 mM EDTA and 5% sucrose, pH 7.5) using homogenizer in cold condition. • 3. Centrifuge the homogenized cerebellum at 18000 rpm (38000 g) for 15 min at 4° C. • 4. Resuspend the pellet in 5 ml 50 mM Tris-HCL containing 1 mM EDTA and keep it on ice for 30 min. • 5. Pass the membrane through insulin syringe to ensure uniform suspension. • 6. Centrifuge the membrane at 18000 rpm at 4° C. for 20 min. • 7. Reconstitute the pellet in 3 ml of GTPγS buffer and estimate the protein by BCA assay and store the membrane in aliquots of 1000 μg of protein. CB1 Agonist and Antagonist Activity Screening Assay
The test compounds were screened at a final concentration of 1 μM or 300 nM in the absence and presence of 1 μM of WIN 55, 212-2 in the same manner as described in the GTPγS binding assay.
An agonist will stimulate the GTPγS binding over the basal.
An inverse agonist will decrease the basal GTPγS binding and/or produce more than 100% inhibition of the agonist (WIN-55212-2) induced stimulation.
The percent stimulation of GTPγS binding by each test compound at 1 μM or 300 nM concentration in the absence and presence of 1 μM WIN 55, 212-2 was calculated by comparing it with basal specific bound (Basal binding—Non Specific binding) values.

[4] = molecular target: T1, CB1; experiment: Rat CB1 receptor binding using brain membrane, [3H]SR141716A displacement (Protocol I); parameters: CB1 receptor present in a rat brain membrane preparation; from tissue; host or cells: rat brain membrane; inhibition: dose or concentration left out as unconfirmed; settings: 1 h
[5] = hCB2-CHO membranes, [3H]-CP-55,940 displacement

hCB1, sequence (P21554 whole entry): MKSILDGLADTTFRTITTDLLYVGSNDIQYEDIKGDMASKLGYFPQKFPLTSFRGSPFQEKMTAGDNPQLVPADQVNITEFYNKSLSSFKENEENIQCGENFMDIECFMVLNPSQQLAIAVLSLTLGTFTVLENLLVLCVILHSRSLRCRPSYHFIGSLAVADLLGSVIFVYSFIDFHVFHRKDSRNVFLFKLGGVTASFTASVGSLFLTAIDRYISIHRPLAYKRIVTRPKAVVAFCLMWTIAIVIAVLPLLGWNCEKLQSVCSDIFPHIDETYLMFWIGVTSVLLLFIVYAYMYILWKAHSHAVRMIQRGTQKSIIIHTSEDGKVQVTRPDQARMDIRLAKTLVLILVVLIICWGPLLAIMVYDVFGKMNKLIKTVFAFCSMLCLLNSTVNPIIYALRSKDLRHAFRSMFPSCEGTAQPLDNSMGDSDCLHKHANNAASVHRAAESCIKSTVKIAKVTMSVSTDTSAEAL

Compound	% Displacement Protocol II [1] [%]	% Displacement Protocol IV [2, 5] [%]	also measured
O=C(NC12CC3CC(CC(C3)C1)C2)c1nn(-c2ccc(F)cc2)c2c1C1CC3CC(C1)CC2C3 [Example 158, N(7)-(Adamantan-1-yl)-5-(4-fluorophenyl)-5,6-diazatetracyclo[7.3.1.1^3,11.0^4,8]tetradeca-4(8)-6-diene-7-carboxamide]	70.12	95.4	–
O=C(NN1CCOCC1)c1nn(-c2ccc(F)cc2F)c2c1C1CCC2C1 (stereo not shown) [Example 312, 4-[5-(2,4-Difluorophenyl)-4,5-diazatricyclo[5.2.1.0^2,6]deca-2(6),3-dien-3-ylcarboxamido]morpholine]	10.97	4.47	–
CCCCCn1nc(C(=O)NC(C)(C)c2ccccc2)c2c1C1CC3CC(CC2C3)C1 [Example 190b, N(7)-(1-Methyl-1-phenylethyl)-5-pentyl-5,6-diazatetracyclo[7.3.1.1^3,11.0^4,8]tetradeca-4(8)-6-diene-7-carboxamide]	100	96.07	–
C[C@H](NC(=O)c1nn(-c2ccc(F)cc2F)c2c1C1CC3CC(C1)CC2C3)c1ccccc1 [Example 146]	60.51	68.16	–
COC(=O)[C@H](NC(=O)c1nn(-c2ccc(F)cc2F)c2c1C1CCC2C1)c1ccccc1 (stereo partly drawn) [Example 319, Methyl (2R)-2-[5-(2,4-difluorophenyl)-4,5-diazatricyclo[5.2.1.0.^2,6]deca-2(6),3-dien-3-ylcarboxamido]-2-phenylethanoate]	88.02	86.68	–
C[C@@H](NC(=O)c1nn(-c2ccc(Cl)cc2)c2c1C1CC3CC(C1)CC2C3)c1ccccc1 [Example 118]	45.43	61.23	–
C[C@H](NC(=O)c1n[nH]c2c1C1(c3ccc(F)cc3F)CCC2C1)c1ccccc1 (stereo partly drawn) [Example 292, N(3)-[S-(1-Phenylethyl)]-4-(2,4-difluorophenyl)-4,5,6,7-tetrahydro-1H-4,7-methano-indazole-3-carboxamide]	69.79	–	–
O=C(NNc1ccccc1Cl)c1nn(-c2ccc(F)cc2F)c2c1C1CCC2C1 (stereo not shown) [Example 286, N(3)-[(2-Chlorophenyl)amino]-1-(2,4-difluorophenyl)-4,5,6,7-tetrahydro-H-4,7-methano-indazole-3-carboxamide]	32.35	–	–
COC(=O)[C@@H](NC(=O)c1nn(-c2ccc(F)cc2F)c2c1C1CCC2C1)c1ccccc1 (stereo partly drawn) [Example 301, Methyl(2S)-2-[5-(2,4-difluorophenyl)-4,5-diazatricyclo[5.2.1.0.^2,6]deca-2(6),3-dien-3-ylcarboxamido]-2-phenylethanoate]	82.54	82.09	–
COC(=O)[C@H](NC(=O)c1nn(-c2ccc(F)cc2F)c2c1C1CC3CC(C1)CC2C3)c1ccccc1 [Example 154, Methyl(2R)-2-[7-(2,4-difluorophenyl)-6,7-diazatetracyclo[7.3.1.1^3,11.0^4,8]tetradeca-4(8),5-dien-5-ylcarboxamido]-2-phenylethanoate]	96.1	70.19	–
O=C(NC12CC3CC(CC(C3)C1)C2)c1nn(-c2ccc(F)cc2F)c2c1C1CC3CC(C1)CC2C3 [Example 144, N(7)-(Adamantan-1-yl)-5-(2,4-difluorophenyl)-5,6-diazatetracyclo[7.3.1.1^3,11.0^4,8]tetradeca-4(8)-6-diene-7-carboxamide]	40.13	69.24	–
O=C(Nc1cccc(Cl)c1)c1nn(-c2ccc(Cl)cc2)c2c1C1CCC2C1 (stereo not shown) [Example 215, N(3)-(3-Chorophenyl)-1-(4-chlorophenyl)-4,5,6,7-tetrahydro-1H-4,7-methano-indazole-3-carboxamide]	1.38	–	–
CC(C)(NC(=O)c1nn(-c2ccc(F)cc2F)c2c1C1CCC2(C)C1(C)C)c1ccccc1 (stereo not shown) [Example 407]	87.28	88.44	–
COC(=O)[C@@H](NC(=O)c1nn(-c2ccc(F)cc2F)c2c1C1CC3CC(C1)CC2C3)c1ccccc1 [Example 155, Methyl(2S)-2-[7-(2,4-difluorophenyl)-6,7-diazatetracyclo[7.3.1.1^3,11.0^4,8]tetradeca-4(8),5-dien-5-ylcarboxamido]-2-phenylethanoate]	96.65	72.38	–
COC(=O)[C@@H](NC(=O)c1nn(-c2ccc(F)cc2F)c2c1C1CCC2C1)c1ccc(F)cc1 (stereo partly drawn) [Example 326, Methyl (2S)-2-[5-(2,4-difluorophenyl)-4,5-diazatricyclo[5.2.1.0.^2,6]deca-2(6),3-dien-3-ylcarboxamido]-2-(4-fluorophenyl)ethanoate]	73.99	99.18	–
Cl.O=C(NNc1ccc(F)cc1)c1nn(-c2ccc(Cl)cc2)c2c1C1CC3CC(C1)CC2C3 [Example 131, N(7)-(4-Fluorophenylamino)-5-(4-chlorophenyl)-5,6-diazatetracyclo[7.3.1.1^3,11.0^4,8]tetradeca-4(8),6-diene-7-carboxamide hydrochloride]	–	–	inhibition at 0.3 µM [2]: 10.8%; activation at 1 µM ([3]; 1 h, GTPγS binding over basal, rat cerebellar membrane, tested at 1 uM, read-out: Per Se % Stimulation): -1.7%; inhibition at 1 µM ([3]; GTPγS binding, tested at 1 uM in presence of 1 μM WIN 55,212-2, read-out: % Inhibition of WIN-55212-2 induced stimulation): 86%; melting point: 175 °C; inhibition ([4]; read-out: % Displacement Protocol I, rat brain membrane, [3H]SR141716A displacement): 85.2%
Cc1ccc(-n2nc(C(=O)NCc3ccccc3Cl)c3c2C2CC4CC(CC3C4)C2)cc1 [Example 162, N(7)-(2-Chlorobenzyl)-5-(4-methylphenyl)-5,6-diazatetracyclo[7.3.1.1^3,11.0^4,8]tetradeca-4(8),6-diene-7-carboxamide]	–	–	inhibition at 0.3 µM [2, 5]: 33.8%; activation at 0.3 µM ([3]; 1 h, GTPγS binding over basal, rat cerebellar membrane, tested at 300 nM, read-out: Per Se % Stimulation): -29.2%; inhibition at 0.3 µM ([3]; GTPγS binding, tested at 300 nM in presence of 1 μM WIN 55,212-2, read-out: % Inhibition of WIN-55212-2 induced stimulation): 72%; melting point: 127 to 130 °C; inhibition ([4]; rat brain membrane, [3H]SR141716A displacement, read-out: % Displacement Protocol I): 38.9%

— patent publication US7923465B2, “Cannabinoid receptor ligands, pharmaceutical compositions containing them, and process for their preparation” (priority 2005, dated 2011)
